Measurements reported in patent publication US20250002435A1, “ARYLATED FENCHONE DERIVATIVES, COMPOSITIONS COMPRISING THEM, PROCESSES FOR THEIR PREPARATION AND USES THEREOF” (priority 2021, published 2025).
“Also recorded” adds a separate entry of the source.

What was measured:
[1] = target: CNR2 (Homo sapiens (Human), UniProt P34972); test: cAMP Hunter antagonist assay, CB2; format: cell-based; details: cAMP antagonist mode
Method: (§1) Cannabinoid receptors belong to G-protein-coupled receptors which may transduce intracellular agonist-antagonist responses regulating in part levels of cAMP within the cells. Fenchone derivates were assayed using Eurofins proprietary assays (i.e. CB1-Antagonist Catalog #86-0007P-2277AN; CB2-Antagonist Catalog ref. 86-0007P-2818AN; CB1-Agonist; Catalog #86-0007P-2277AG; CB2-Agonist-Catalog #86-0007P-2818AG).
(§2) Briefly, for antagonist activity, cAMP Hunter™ Gi cell lines overexpress naturally Gi coupled, wild type GPCRs and are designed to detect inhibition of intracellular cAMP production in response to agonist stimulation of the receptor. These cell lines are designed to be used in conjunction with the HitHunter® cAMP Assay Detection Kit.
as §2, with “Similarly,” for “Briefly,”, “agonist” for “antagonist”, “Gs” for “Gi”, “increases in” for “inhibition of”, “levels” for “production”, “Kit. […]” for “Kit.”

[2] = target: hCB2R (Homo sapiens (Human), UniProt P34972); test: [3H]CP-55,940 competition displacement binding, membranes of CHO-K1 cells expressing human CB2R; details: for Ki: displacement of [3H]CP-55,940; for mCB1R/hCB2R: selectivity index from Ki values
Chain of hCB2R (P34972 whole entry): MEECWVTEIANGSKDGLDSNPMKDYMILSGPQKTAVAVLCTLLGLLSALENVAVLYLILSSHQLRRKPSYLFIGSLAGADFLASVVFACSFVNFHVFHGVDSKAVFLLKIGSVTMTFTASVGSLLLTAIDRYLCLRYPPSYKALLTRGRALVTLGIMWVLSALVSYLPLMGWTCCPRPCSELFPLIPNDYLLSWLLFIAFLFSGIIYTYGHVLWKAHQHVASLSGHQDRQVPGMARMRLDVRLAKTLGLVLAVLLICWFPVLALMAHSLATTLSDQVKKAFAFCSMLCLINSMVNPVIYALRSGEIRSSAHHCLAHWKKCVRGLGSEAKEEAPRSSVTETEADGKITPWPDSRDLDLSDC
Method: Affinity for Cannabinoid Receptors. The compounds were further characterized using a radioligand binding assay to determine their affinities for CB1R and CB2R based on each test compound's ability to displace the radiolabeled CB1R/CB2R agonist CP-55,940 from membranes prepared from a mouse brain (a source of CB1R) and membranes of cells expressing the human CB2R. […] Therefore, the compounds were assayed using membranes from CHO-K1 cells expressing the human CB2R (hCB2R).
Membranes from cells expressing human CB2R were purchased from Charles River, (Cat #A308; Ohio, US). Solutions of test compounds ranging from 0.1 nM to 10 mM were prepared in DMSO. The desired amount of membrane preparation was diluted with ice-cold assay buffer (50 mM Tris-HCl, 2.5 mM EDTA, 5 mM MgCl2, 0.1% BSA, pH 7.4) and was vortexed. […] The assays were incubated for 90 minutes at 30° C. and then immediately filtered on WHATMAN GF/B FilterPaper (Fired) using a Brandel M-24R Harvester followed by six washes with ice cold wash buffer (50 mM Tris-HCl, 2.5 mM EDTA, 5 mM MgCl2, 0.1% BSA, pH 7.4). Radioactivity was detected by adding the FilterPaper directly to the ULTIMA GOLD scintillation cocktail (PerkinElmer), incubation at 20° C. for 60 min and then counted using a Tri-Carb 4910TR liquid scintillation counter.

[3] = test system: Human OA derived articular chondrocytes; test: cAMP-Glo EC50 in chondrocyte cell cultures; format: cell-based; details: 45 min treatment
Source text: All human cell cultures were obtained from total knee replacement surgery (TKA) in accordance with Hadassah Medical Center Institutional Review Board approval and in accordance with the Helsinki Declaration ethical principles for medical research involving human subjects (Study #0488-09). Following written informed consent, articular cartilage was obtained from the knee joints of OA patients undergoing total knee arthroplasty (n=51, mean age 71 years, mean body mass index 31 kg/m2, Kellgren and Lawrence score ranging 3-4). Articular cartilage tissue was dissected, chondrocytes isolated and plated as described by Bar Oz et al., (10). Isolated chondrocytes were passaged to passage 3, and plated in 96 well plates with DMEM media containing 10% FCS, 1% Penicillin-streptomycin, 1% Amphotericin B. Cultures were maintained in standard incubation conditions (37° C., 5% CO2) until confluence. All reagents for cell culture were purchased for Biological Industries (Israel, Beit-Haemek Kibutz), unless otherwise indicated. […] Luminescence was measured and a standard curve was simultaneously run per plate. […] Using this ΔRLU value and the linear equation generated from the standard curve, the cAMP concentration was calculated. […]

[4] = target: CNR1 (Homo sapiens (Human), UniProt P21554); test: cAMP Hunter agonist assay, CHO-K1 cells expressing CB1; format: cell-based
Method: as §1
Similarly, for agonist activity, cAMP Hunter™ Gs cell lines overexpress naturally Gs coupled, wild type GPCRs and are designed to detect increases in intracellular cAMP levels in response to agonist stimulation of the receptor. These cell lines are designed to be used in conjunction with the HitHunter® cAMP Assay Detection Kit. For both assays, human CB1 or CB2 receptors were stably transfected CHO-K1 cells and subjected to positive controls, known to activate the increase of cAMP for both receptors (Agonist control 20 μM Forskolin for CB1 and 25 μM Forskolin for CB2) or inhibit cAMP intracellular levels of CB1 ([…] CP55940) or CB2 ([…] CP55940). Cells were seeded in a total volume of 20 μL into white walled, 384-well microplates and incubated at 37° C. overnight. Prior to testing cell plating media was exchanged with 10 uL of Assay buffer (HBSS+10 mM HEPES). […]

Compound | antagonistic effect CNR2 [1] | Ki [2] [nM] | mCB1R/hCB2R [2] | EC50 in chondrocytes compared with HU308 [3] | agonist response CNR1 [4] | selectivity for the hCB2R over the mCB1R ([2]; from Ki values) [fold]
CCCCCc1cc(OC)c(C2(O)C3(C)CCC(C3)C2(C)C)c(OC)c1 (single isomer, unassigned) [Compound 1b, 2-(2,6′-dimethoxy-4′-pentylphenyl)-1,3,3-trimethylbicyclo[2.2.1]heptan-2-ol] | no detectable antagonistic effect | 14.4 | 158.3 | low EC50; also recorded: superior EC50 over HU308 | no response | –
CCCCCCC(C)(C)c1cc(OC)c([C@]2(O)C3(C)CCC(C3)C2(C)C)c(OC)c1 (some centres unmarked) [Compound 1d, 2-(2,6′-dimethoxy-4′-(2″-methyloctan-2″-yl)phenyl)-1,3,3-trimethyl-bicyclo[2.2.1]heptan-2-ol] | no detectable antagonistic effect | 3.51 | 121.8 | low EC50; also recorded: superior EC50 over HU308 | no response | 121
